This note sets out measurements from US11254686B1 (Corvus Pharmaceuticals, Inc., priority 2017, dated 2022).

In one assay the target is adenosine A2B receptor (Homo sapiens (Human), UniProt P29275). As to the kind of experiment: Adenosine receptor activity assay (Table 1), A2B activity. The class given is biochemical. To be noted: for IC50: read-out: Ave A2B cAMP IC50; for Ratio: A2A activity to the A2B activity, A2A/A2B.
In a further assay the target is adenosine A2A receptor (Homo sapiens (Human), UniProt P29274). Briefly: Adenosine receptor activity assay (Table 1), A2A activity. The class given is biochemical. To be noted: read-out: Ave A2A cAMP IC50.
Chain of adenosine A2A receptor (P29274 whole entry): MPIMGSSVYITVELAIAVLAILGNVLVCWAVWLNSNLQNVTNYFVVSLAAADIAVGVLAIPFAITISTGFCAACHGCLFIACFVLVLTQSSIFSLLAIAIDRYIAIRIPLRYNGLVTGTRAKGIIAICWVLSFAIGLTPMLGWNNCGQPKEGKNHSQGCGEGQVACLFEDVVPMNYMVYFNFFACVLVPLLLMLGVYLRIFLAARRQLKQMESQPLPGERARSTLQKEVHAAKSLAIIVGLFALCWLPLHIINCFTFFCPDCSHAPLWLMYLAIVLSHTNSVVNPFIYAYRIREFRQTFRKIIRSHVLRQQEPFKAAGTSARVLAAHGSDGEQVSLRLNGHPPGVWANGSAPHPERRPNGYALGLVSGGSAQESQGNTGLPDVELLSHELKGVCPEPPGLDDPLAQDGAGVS

SMILES strings stand for the structures.

Chain of adenosine A2B receptor (P29275 whole entry): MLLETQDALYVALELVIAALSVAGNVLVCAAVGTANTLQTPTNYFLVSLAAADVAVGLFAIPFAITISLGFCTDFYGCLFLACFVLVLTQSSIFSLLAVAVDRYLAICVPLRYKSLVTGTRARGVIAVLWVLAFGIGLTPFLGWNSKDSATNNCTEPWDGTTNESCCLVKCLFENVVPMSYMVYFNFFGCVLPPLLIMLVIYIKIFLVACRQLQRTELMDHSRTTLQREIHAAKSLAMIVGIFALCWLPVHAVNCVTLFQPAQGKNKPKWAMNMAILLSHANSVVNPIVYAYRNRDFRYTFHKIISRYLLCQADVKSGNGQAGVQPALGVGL

For orientation: IC50 means the concentration at which inhibition is half-maximal. Take `C[C@H](Nc1nc(C(=O)NC2CN(C(=O)C(C)(C)C)C2)c2sccc2n1)c1cncc(F)c1` [Example Z545, (S)-2-((1-(5-Fluoropyridin-3-yl)ethyl)amino)-N-(1-pivaloylazetidin-3-yl)thieno[3,2-d]pyrimidine-4-carboxamide]: the IC50 on adenosine A2B receptor and on adenosine A2A receptor was 100 to 500 nM each time.
Turning to `C[C@H](Nc1nc(C(=O)N2CC(C(=O)NCCO)C2)c2sccc2n1)c1cncc(F)c1` [Example Z547, (S)-1-(2-((1-(5-Fluoropyridin-3-yl)ethyl)amino)thieno[3,2-d]pyrimidine-4-carbonyl)-N-(2-hydroxyethyl)azetidine-3-carboxamide], at adenosine A2B receptor, the Ratio was found to be 43.40 and the IC50 is 50 to 100 nM. Further, the IC50 at adenosine A2A receptor was more than 500 nM.
`C[C@H](Nc1nc(C(=O)N2CCC(C(=O)NC(C)(C)C)C2)c2sccc2n1)c1cncc(F)c1` (stereo partly drawn) [Example Z548, N-(tert-Butyl)-1-(2-(((S)-1-(5-fluoropyridin-3-yl)ethyl)amino)thieno[3,2-d]pyrimidine-4-carbonyl)pyrrolidine-3-carboxamide]: the IC50 at adenosine A2B receptor fell in the range of 10 to 50 nM; on adenosine A2A receptor, 100 to 500 nM.
For the compound `C[C@H](Nc1nc(C(=O)N2CC(CN(C)C(=O)CC(C)(C)C)C2)c2sccc2n1)c1cncc(F)c1` [Example Z550, (S)—N-((1-(2-((1-(5-Fluoropyridin-3-yl)ethyl)amino)thieno[3,2-d]pyrimidine-4-carbonyl)azetidin-3-yl)methyl)-N,3,3-trimethylbutanamide], the Ratio on adenosine A2B receptor is reported as 4.79. Moreover, the values for the IC50 at adenosine A2B receptor and at adenosine A2A receptor were 10 to 50 nM and 50 to 100 nM, respectively.
Regarding `COc1ccc([C@H](C)Nc2nc(C(=O)N3CC(NC(=O)OC(C)C)C3)c3sc(C)cc3n2)cc1` [Example Z555, Isopropyl (S)-(1-(2-((1-(4-methoxyphenyl)ethyl)amino)-6-methylthieno[3,2-d]pyrimidine-4-carbonyl)azetidin-3-yl)carbamate], on adenosine A2B receptor, the Ratio is 0.18 and the IC50 fell in the range of 100 to 500 nM. For the same compound, the IC50 at adenosine A2A receptor was in the range of 50 to 100 nM.
Regarding `COc1ccc([C@H](C)Nc2nc(C(=O)N3CC(NC(C)=O)C3)c3sc(C)cc3n2)cc1` [Example Z556, (S)—N-(1-(2-((1-(4-Methoxyphenyl)ethyl)amino)-6-methylthieno[3,2-d]pyrimidine-4-carbonyl)azetidin-3-yl)acetamide], on adenosine A2B receptor, the Ratio worked out at 0.22 and the IC50 lay within 100 to 500 nM. For the same compound, the IC50 on adenosine A2A receptor is 50 to 100 nM.
For `C[C@H](Nc1nc(C(=O)N2CC(C(N)=O)C2)c2sccc2n1)c1cncc(F)c1` [Example Z563, (S)-1-(2-((1-(5-Fluoropyridin-3-yl)ethyl)amino)thieno[3,2-d]pyrimidine-4-carbonyl)azetidine-3-carboxamide], the Ratio on adenosine A2B receptor was 16.87. In addition, the 50% inhibitory concentration (IC50) on adenosine A2B receptor was 10 to 50 nM; on adenosine A2A receptor it was more than 500 nM.
Turning to `CC(C)C(=O)N1CCN(C(=O)c2nc(N[C@@H](C)c3cncc(F)c3)nc3ccsc23)C1` [Example Z564, (S)-1-(3-(2-((1-(5-Fluoropyridin-3-yl)ethyl)amino)thieno[3,2-d]pyrimidine-4-carbonyl)imidazolidin-1-yl)-2-methylpropan-1-one], the Ratio at adenosine A2B receptor was determined as 18.15. Also, the IC50 was 100 to 500 nM at adenosine A2B receptor and more than 500 nM at adenosine A2A receptor.
The corresponding values for `C[C@H](Nc1nc(C(=O)N2CCN(C(=O)C(C)(C)C)C2)c2sccc2n1)c1cncc(F)c1` [Example Z565, (S)-1-(3-(2-((1-(5-Fluoropyridin-3-yl)ethyl)amino)thieno[3,2-d]pyrimidine-4-carbonyl)imidazolidin-1-yl)-2,2-dimethylpropan-1-one] are 6.39, more than 500 nM and more than 500 nM.
As to `C[C@H](Nc1nc(C(=O)N2CCN(C(=O)OCC(C)(C)C)C2)c2sccc2n1)c1cncc(F)c1` [Example Z566, Neopentyl (S)-3-(2-((1-(5-fluoropyridin-3-yl)ethyl)amino)thieno[3,2-d]pyrimidine-4-carbonyl)imidazolidine-1-carboxylate], on adenosine A2B receptor, the Ratio is 3.10. Besides, the IC50 at adenosine A2B receptor and on adenosine A2A receptor was more than 500 nM throughout.
